Patent US10538535B2, “Antitumoral compounds” (priority 2017, dated 2020)

Legend:
Assay in all cases: cells
A549 cells = conditions: Homo sapiens, A549, 72 h; for CC50: read-out: LC50; for IC (TGI): read-out: TGI
Description: (§1) The aim of this assay is to evaluate the in vitro cytostatic (ability to delay or arrest tumor cell growth) or cytotoxic (ability to kill tumor cells) activity of the samples being tested.
(§2) A colorimetric assay, using sulforhodamine B (SRB) reaction has been adapted to provide a quantitative measurement of cell growth and viability (following the technique described by Skehan et al. J. Natl. Cancer Inst. 1990, 82, 1107-1112). Another colorimetric assay based on 3-(4,5-Dimethylthiazol-2-yl)-2,5-diphenyltetrazolium bromide (MTT) reduction to a purple formazan has been also used to assess the antiproliferative activity (following the technique described by Mosmann et al. J. Immunol. Meth. 1983, 65, 55-63).
(§3) These forms of assays employ 96-well cell culture microplates following the standards of the American National Standards Institute and the Society for Laboratory Automation and Screening (ANSI SLAS 1-2004 (R2012) Oct. 12, 2011. All the cell lines used in this study were obtained from the American Type Culture Collection (ATCC) and derive from different types of human cancer.
(§4) A549, HT29, MDA-MB-231 and PSN1 cells were maintained in Dulbecco's Modified Eagle Medium (DMEM) while PC-3 and 22Rv1 cells were maintained in Roswell Park Memorial Institute Medium (RPMI). All cell lines were supplemented with 10% Fetal Bovine Serum (FBS), 2 mM L-glutamine, 100 U/mL penicillin, and 100 […] at 37° C., 5% CO2 and 98% humidity. For the experiments, cells were harvested from subconfluent cultures using trypsinization and resuspended in fresh medium before counting and plating.
(§5) A549, HT29, MDA-MB-231 and PSN1 cells were seeded in 96 well microtiter plates, at 5000 cells per well in aliquots of 150 μL, and allowed to attach to the plate surface for 18 hours (overnight) in drug free medium. After that, one control (untreated) plate of each cell line was fixed (as described below) and used for time zero reference value. Culture plates were then treated with test compounds (50 μL aliquots of 4× stock solutions in complete culture medium plus 4% DMSO) using ten 2/5 serial dilutions (concentrations ranging from 10 to 0.003 μg/mL) and triplicate cultures (1% final concentration in DMSO). After 72 hours treatment, the antitumor effect was measured by using the SRB methodology: Briefly, cells were washed twice with PBS, fixed for 15 min in 1% glutaraldehyde solution at room temperature, rinsed twice in PBS, and stained in 0.4% SRB solution for 30 min at room temperature. Cells were then rinsed several times with 1% acetic acid solution and air-dried at room temperature.
(§6) Effects on cell growth and survival were estimated by applying the NCI algorithm (Boyd M R and Paull K D. Drug Dev. Res. 1995, 34, 91-104). The values obtained in triplicate cultures were fitted by nonlinear regression to a four-parameters logistic curve by nonlinear regression analysis.

HT29 cells = conditions: Homo sapiens, HT-29, 72 h; for CC50: read-out: LC50; for IC (TGI): read-out: TGI
Description: as §1, §2, §3, §4, §5, §6

MDA-MB-231 cells = conditions: Homo sapiens, MDA-MB-231, 72 h; for CC50: read-out: LC50; for IC (TGI): read-out: TGI
Description: as §1, §2, §3, §4, §5, §6

PSN1 cells = conditions: Homo sapiens, PSN1, 72 h; for CC50: read-out: LC50; for IC (TGI): read-out: TGI
Description: as §1, §2, §3, §4, §5, §6

Work on `COc1c(C)cc2c(c1O)[C@@H]1[C@@H]3[C@@H]4SC[C@]5(N[C@H](C)Cc6c5[nH]c5ccccc65)C(=O)OC[C@@H](c5c6c(c(C)c(OC(C)=O)c54)OCO6)N3[C@@H](C#N)[C@H](C2)N1C` [A] yielded a GI50 (A549 cells) of 8.36 nM, a CC50 (A549 cells) greater than 129 nM and an IC (TGI) (A549 cells) of 8.87 nM. For the same compound, the GI50 (HT29 cells) was 7.71 nM, the CC50 (HT29 cells) was greater than 129 nM and the IC (TGI) (HT29 cells) was 8.36 nM. For the same compound, the GI50 (MDA-MB-231 cells) was 7.07 nM, the CC50 (MDA-MB-231 cells) was 14.1 nM and the IC (TGI) (MDA-MB-231 cells) was 9.38 nM. The GI50 (PSN1 cells) was 12.9 nM, the CC50 (PSN1 cells) was 19.3 nM and the IC (TGI) (PSN1 cells) was 15.4 nM.
Work on `COc1c(C)cc2c(c1O)[C@@H]1[C@@H]3[C@@H]4SC[C@]5(N[C@@H](C)Cc6c5[nH]c5ccccc65)C(=O)OC[C@@H](c5c6c(c(C)c(OC(C)=O)c54)OCO6)N3[C@@H](C#N)[C@H](C2)N1C` [B] yielded a GI50 (A549 cells) of 20.6 nM, a CC50 (A549 cells) greater than 129 nM and an IC (TGI) (A549 cells) of 21.9 nM. For the same compound, the GI50 (HT29 cells) was 8.48 nM, the CC50 (HT29 cells) was greater than 129 nM and the IC (TGI) (HT29 cells) was 9.13 nM. The GI50 (MDA-MB-231 cells) was 9 nM, the CC50 (MDA-MB-231 cells) was 34.7 nM and the IC (TGI) (MDA-MB-231 cells) was 16.7 nM. For the same compound, the GI50 (PSN1 cells) was 19.3 nM, the CC50 (PSN1 cells) was 23.1 nM and the IC (TGI) (PSN1 cells) was 20.6 nM.
In the case of `COc1c(C)cc2c(c1O)[C@@H]1[C@@H]3[C@@H]4SC[C@]5(N[C@@H](CO)Cc6c5[nH]c5ccccc65)C(=O)OC[C@@H](c5c6c(c(C)c(OC(C)=O)c54)OCO6)N3[C@@H](C#N)[C@H](C2)N1C` [Compound 3-R], the CC50 (A549 cells) is reported as greater than 126 nM, the IC (TGI) (A549 cells) is reported as 0.579 nM and the CC50 (HT29 cells) is reported as greater than 126 nM. The IC (TGI) (HT29 cells) was greater than 126 nM, the CC50 (MDA-MB-231 cells) was 1.25 nM and the IC (TGI) (MDA-MB-231 cells) was 0.504 nM. It also gave a GI50 (PSN1 cells; PSN1, 72 hours treatment, SRB) of 0.39 nM, a CC50 (PSN1 cells) greater than 126 nM and an IC (TGI) (PSN1 cells) of 0.605 nM.
`COc1c(C)cc2c(c1O)[C@@H]1[C@@H]3[C@@H]4SC[C@]5(N[C@H](COC(C)=O)Cc6c5[nH]c5ccccc65)C(=O)OC[C@@H](c5c6c(c(C)c(OC(C)=O)c54)OCO6)N3[C@@H](C#N)[C@H](C2)N1C` [Compound 3a-S] was tested, and the GI50 (A549 cells) was 3.11 nM, the CC50 (A549 cells) was greater than 120 nM and the IC (TGI) (A549 cells) was 3.23 nM. For the same compound, the GI50 (HT29 cells) was 2.99 nM, the CC50 (HT29 cells) was greater than 120 nM and the IC (TGI) (HT29 cells) was 3.23 nM. For the same compound, the GI50 (MDA-MB-231 cells) was 2.87 nM, the CC50 (MDA-MB-231 cells) was 4.9 nM and the IC (TGI) (MDA-MB-231 cells) was 3.59 nM. It also gave a GI50 (PSN1 cells; PSN1, 72 hours treatment, SRB) of 2.15 nM, a CC50 (PSN1 cells) of 12 nM and an IC (TGI) (PSN1 cells) of 3.59 nM.
With `COc1c(C)cc2c(c1O)[C@@H]1[C@@H]3[C@@H]4SC[C@]5(N[C@H](COC(C)=O)Cc6c5[nH]c5ccccc65)C(=O)OC[C@@H](c5c6c(c(C)c(OC(C)=O)c54)OCO6)N3[C@@H](O)[C@H](C2)N1C` [Compound 4a-S] the CC50 (A549 cells) was greater than 121 nM and the CC50 (HT29 cells) was greater than 121 nM.
`C=CCOC(=O)NC[C@H]1Cc2c([nH]c3ccccc23)[C@@]2(CS[C@@H]3c4c(OC(C)=O)c(C)c5c(c4[C@H](COC2=O)N2[C@@H]3[C@H]3c4c(cc(C)c(OC)c4O)C[C@@H]([C@@H]2C#N)N3C)OCO5)N1` [Compound 10-R] was tested, and the CC50 (A549 cells) was greater than 114 nM, the CC50 (HT29 cells) was greater than 114 nM and the IC (TGI) (HT29 cells) was greater than 114 nM.
`C=CCOC(=O)NC[C@@H]1Cc2c([nH]c3ccccc23)[C@@]2(CS[C@@H]3c4c(OC(C)=O)c(C)c5c(c4[C@H](COC2=O)N2[C@@H]3[C@H]3c4c(cc(C)c(OC)c4O)C[C@@H]([C@@H]2C#N)N3C)OCO5)N1` [Compound 10-S] was tested, and the CC50 (HT29 cells) was greater than 1140 nM.
`COc1c(C)cc2c(c1O)[C@@H]1[C@@H]3[C@@H]4SC[C@]5(N[C@@H](CN)Cc6c5[nH]c5ccccc65)C(=O)OC[C@@H](c5c6c(c(C)c(OC(C)=O)c54)OCO6)N3[C@@H](C#N)[C@H](C2)N1C` [Compound 11-R] gave a GI50 (A549 cells) of 1.77 nM, a CC50 (A549 cells) greater than 126 nM and a GI50 (HT29 cells) of 1.39 nM. For the same compound, the CC50 (HT29 cells) was greater than 126 nM, the IC (TGI) (HT29 cells) was greater than 126 nM and the GI50 (PSN1 cells; PSN1, 72 hours treatment, SRB) was 1.39 nM. For the same compound, the CC50 (PSN1 cells) was greater than 126 nM and the IC (TGI) (PSN1 cells) was 1.89 nM.
`COc1c(C)cc2c(c1O)[C@@H]1[C@@H]3[C@@H]4SC[C@]5(N[C@H](CN)Cc6c5[nH]c5ccccc65)C(=O)OC[C@@H](c5c6c(c(C)c(OC(C)=O)c54)OCO6)N3[C@@H](C#N)[C@H](C2)N1C` [Compound 11-S] showed a CC50 (A549 cells) greater than 126 nM, a CC50 (HT29 cells) greater than 126 nM and an IC (TGI) (HT29 cells) greater than 126 nM.
